Experimental findings from patent US20080227870A1, “Carcinogen Solvents in Reducing the Carcinogen Concentration of Cells” (priority 2004, published 2008) are described below.

This data set deals with human fibroplasts. Briefly: Membrane integrity test with a vital dye after exposure to perfluorocarbon liquid. The conditions noted are these: biological compatibility statement for the used examples. Type of data set: cell-based.

With `FC1(F)C(F)(F)C(F)(F)C2(F)C(F)(F)C(F)(F)C(F)(F)C(F)(F)C2(F)C1(F)F` (centres unmarked) [perfluorodecalin], the “toxicity to the cell” value was “non-toxic”.

For the molecule `FC(F)(F)C(F)(F)C(F)(F)C(F)(F)C(F)(F)C(F)(F)C(F)(F)C(F)(F)Br` [perfluorooctylbromide], the “toxicity to the cell” value is “non-toxic”.
